Laboratory results published in PubChem BioAssay AID1963440 (Molecular Pharmacology Branch, DTP, NCI, 2024).

Test system: NCI-H1417 complex spheroids, growth % test/control
Experiment: Anticancer human tumor NCI-H1417 cell line growth inhibition [Asc];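 note: spheroids exposed to compounds for 7 days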;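 for viability, T/C: 100% = DMSO vehicle control wells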
Conditions: for IC50: curve of first compound; for viability, T/C: stronger effect = lower value
Outline: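 Stromal components (HUVEC and hMSC) are co-assembled with the cancer cells into multicellular spheroids. Drugs are then added singly or paired, at concentrations falling by half-log increments from a clinically achievable maximum, capped at 10 microM without known Cmax.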

[1] = second compound 0.1 µM, first compound 0.00316 µM
[2] = second compound 0.1 µM, first compound 0.01 µM
[3] = second compound 0.1 µM, first compound 0.0316 µM
[4] = second compound 0.1 µM, first compound 0.1 µM
[5] = second compound 0.1 µM, first compound 0.316 µM
[6] = second compound 0.1 µM, first compound 1 µM
[7] = second compound 0.316 µM, first compound 0.00316 µM
[8] = second compound 0.316 µM, first compound 0.01 µM
[9] = second compound 0.316 µM, first compound 0.0316 µM
[10] = second compound 0.316 µM, first compound 0.1 µM
[11] = second compound 0.316 µM, first compound 0.316 µM
[12] = second compound 0.316 µM, first compound 1 µM
[13] = second compound 1 µM, first compound 0.00316 µM
[14] = second compound 1 µM, first compound 0.01 µM
[15] = second compound 1 µM, first compound 0.0316 µM
[16] = second compound 1 µM, first compound 0.1 µM
[17] = second compound 1 µM, first compound 0.316 µM
[18] = second compound 1 µM, first compound 1 µM

CNC(C)C(=O)NC1CN(S(=O)(=O)c2cccc(S(=O)(=O)N3CCC4CCC(C(=O)NC(c5ccccc5)c5ccccc5)N4C(=O)C(NC(=O)C(C)NC)C3)c2)CCC2CCC(C(=O)NC(c3ccccc3)c3ccccc3)N2C1=O (stereo not given) + Cc1c(S(C)(=O)=O)c(-c2cc(F)cc(N3CCN(c4ccc(NS(=O)(=O)c5ccc(NC(CCN6CCC(C(=O)OCCCP(=O)(O)O)CC6)CSc6ccccc6)c(S(=O)(=O)C(F)(F)F)c5)cc4)CC3)c2)c(-c2ccc(Cl)cc2)n1C(C)C
IC50 (second compound 0.1 µM): > 1000 nM
IC50 (second compound 0.316 µM): < 3.16 nM
IC50 (second compound 1 µM): < 3.16 nM
IC50 (second compound 3.16 µM): < 3.16 nM
IC50 (second compound 10 µM): < 3.16 nM
viability, T/C [1]: 94.1%
viability, T/C [2]: 95.3%
viability, T/C [3]: 80.2%
viability, T/C [4]: 74.7%
viability, T/C [5]: 84.6%
viability, T/C [6]: 81.1%
viability, T/C [7]: 42.4%
viability, T/C [8]: 47.4%
viability, T/C [9]: 47.6%
viability, T/C [10]: 36.8%
viability, T/C [11]: 38%
viability, T/C [12]: 39.3%
viability, T/C [13]: 12.2%
viability, T/C [14]: 10.3%
viability, T/C [15]: 9.05%
viability, T/C [16]: 8.75%
viability, T/C [17]: 4.64%
viability, T/C [18]: 4.71%
viability, T/C (second compound 3.16 µM, first compound 0.00316 µM): 3.82%
viability, T/C (second compound 3.16 µM, first compound 0.01 µM): 2.79%
viability, T/C (second compound 3.16 µM, first compound 0.0316 µM): 2.43%
viability, T/C (second compound 3.16 µM, first compound 0.1 µM): 2.42%
viability, T/C (second compound 3.16 µM, first compound 0.316 µM): 2.07%
viability, T/C (second compound 3.16 µM, first compound 1 µM): 1.84%
viability, T/C (second compound 10 µM, first compound 0.00316 µM): 2.6%
viability, T/C (second compound 10 µM, first compound 0.01 µM): 1.96%
viability, T/C (second compound 10 µM, first compound 0.0316 µM): 3.22%
viability, T/C (second compound 10 µM, first compound 0.1 µM): 1.45%
viability, T/C (second compound 10 µM, first compound 0.316 µM): 1.71%
viability, T/C (second compound 10 µM, first compound 1 µM): 1.47%

Cc1nc(N2CCC3(CC2)COC(C)C3N)c(CO)nc1Sc1ccnc(N)c1Cl (stereo not given) + Cc1c(S(C)(=O)=O)c(-c2cc(F)cc(N3CCN(c4ccc(NS(=O)(=O)c5ccc(NC(CCN6CCC(C(=O)OCCCP(=O)(O)O)CC6)CSc6ccccc6)c(S(=O)(=O)C(F)(F)F)c5)cc4)CC3)c2)c(-c2ccc(Cl)cc2)n1C(C)C
IC50 (second compound 0.1 µM): > 3000 nM
IC50 (second compound 0.316 µM): < 9.49 nM
IC50 (second compound 1 µM): < 9.49 nM
IC50 (second compound 3.16 µM): < 9.49 nM
IC50 (second compound 10 µM): < 9.49 nM
viability, T/C (second compound 0.1 µM, first compound 0.00949 µM): 81.4%
viability, T/C (second compound 0.1 µM, first compound 0.03 µM): 82%
viability, T/C (second compound 0.1 µM, first compound 0.0949 µM): 71.4%
viability, T/C (second compound 0.1 µM, first compound 0.3 µM): 64.8%
viability, T/C (second compound 0.1 µM, first compound 0.949 µM): 64.4%
viability, T/C (second compound 0.1 µM, first compound 3 µM): 52.6%
viability, T/C (second compound 0.316 µM, first compound 0.00949 µM): 46.9%
viability, T/C (second compound 0.316 µM, first compound 0.03 µM): 46.3%
viability, T/C (second compound 0.316 µM, first compound 0.0949 µM): 32.9%
viability, T/C (second compound 0.316 µM, first compound 0.3 µM): 23.9%
viability, T/C (second compound 0.316 µM, first compound 0.949 µM): 13.7%
viability, T/C (second compound 0.316 µM, first compound 3 µM): 12.2%
viability, T/C (second compound 1 µM, first compound 0.00949 µM): 12.4%
viability, T/C (second compound 1 µM, first compound 0.03 µM): 9.91%
viability, T/C (second compound 1 µM, first compound 0.0949 µM): 6.5%
viability, T/C (second compound 1 µM, first compound 0.3 µM): 3.75%
viability, T/C (second compound 1 µM, first compound 0.949 µM): 1.89%
viability, T/C (second compound 1 µM, first compound 3 µM): 0.84%
viability, T/C (second compound 3.16 µM, first compound 0.00949 µM): 2.34%
viability, T/C (second compound 3.16 µM, first compound 0.03 µM): 2.47%
viability, T/C (second compound 3.16 µM, first compound 0.0949 µM): 1.68%
viability, T/C (second compound 3.16 µM, first compound 0.3 µM): 1.09%
viability, T/C (second compound 3.16 µM, first compound 0.949 µM): 0.67%
viability, T/C (second compound 3.16 µM, first compound 3 µM): 0.5%
viability, T/C (second compound 10 µM, first compound 0.00949 µM): 2.47%
viability, T/C (second compound 10 µM, first compound 0.03 µM): 2.41%
viability, T/C (second compound 10 µM, first compound 0.0949 µM): 1.78%
viability, T/C (second compound 10 µM, first compound 0.3 µM): 1.37%
viability, T/C (second compound 10 µM, first compound 0.949 µM): 1.05%
viability, T/C (second compound 10 µM, first compound 3 µM): 1.2%

O=C(c1ccc(F)c(F)c1Nc1ccc(I)cc1F)N1CC(O)([C@@H]2CCCCN2)C1 + CNC(C)C(=O)NC1CN(S(=O)(=O)c2cccc(S(=O)(=O)N3CCC4CCC(C(=O)NC(c5ccccc5)c5ccccc5)N4C(=O)C(NC(=O)C(C)NC)C3)c2)CCC2CCC(C(=O)NC(c3ccccc3)c3ccccc3)N2C1=O
IC50 (second compound 0.01 µM): > 1000 nM
IC50 (second compound 0.0316 µM): > 1000 nM
IC50 (second compound 0.1 µM): > 1000 nM
IC50 (second compound 0.316 µM): > 1000 nM
IC50 (second compound 1 µM): > 1000 nM
viability, T/C (second compound 0.01 µM, first compound 0.00316 µM): 107%
viability, T/C (second compound 0.01 µM, first compound 0.01 µM): 102%
viability, T/C (second compound 0.01 µM, first compound 0.0316 µM): 95%
viability, T/C (second compound 0.01 µM, first compound 0.1 µM): 103%
viability, T/C (second compound 0.01 µM, first compound 0.316 µM): 99.5%
viability, T/C (second compound 0.01 µM, first compound 1 µM): 85.3%
viability, T/C (second compound 0.0316 µM, first compound 0.00316 µM): 107%
viability, T/C (second compound 0.0316 µM, first compound 0.01 µM): 96.6%
viability, T/C (second compound 0.0316 µM, first compound 0.0316 µM): 92.7%
viability, T/C (second compound 0.0316 µM, first compound 0.1 µM): 102%
viability, T/C (second compound 0.0316 µM, first compound 0.316 µM): 96.7%
viability, T/C (second compound 0.0316 µM, first compound 1 µM): 103%
viability, T/C [1]: 101%
viability, T/C [2]: 90.8%
viability, T/C [3]: 95.3%
viability, T/C [4]: 98.4%
viability, T/C [5]: 99.4%
viability, T/C [6]: 91.2%
viability, T/C [7]: 88.6%
viability, T/C [8]: 104%
viability, T/C [9]: 110%
viability, T/C [10]: 90.9%
viability, T/C [11]: 105%
viability, T/C [12]: 101%
viability, T/C [13]: 88%
viability, T/C [14]: 93.8%
viability, T/C [15]: 82.8%
viability, T/C [16]: 95.8%
viability, T/C [17]: 91.4%
viability, T/C [18]: 102%
